# Results reported in patent US20230028441A1, “NOVEL HETEROARYL-TRIAZOLE COMPOUNDS AS PESTICIDES” (Bayer Aktiengesellschaft, priority 2019, published 2023).
# Assays:
# Assay type in all cases: in vivo
# [1] = test system: caterpillars of the fall army worm (Spodoptera frugiperda); experiment: Spodoptera frugiperda spray test (cotton leaves); settings: 168 h
# Protocol: Solvent: 14 parts by weight of dimethylformamide
# Emulsifier: alkylaryl polyglycol ether
# To produce a suitable preparation of active compound, 1 part by weight of active compound is mixed with the stated amount of solvent and is diluted with water, containing an emulsifier concentration of 1000 ppm, to the desired concentration. Further test concentrations are prepared by dilution with emulsifier containing water. Ammonium salt and/or penetration enhancer in a dosage of 1000 ppm are added to the desired concentration if necessary.
# Cotton leaves (Gossypium hirsutum) are treated by being sprayed with the preparation of the active compound of the desired concentration and are infested with caterpillars of the fall army worm (Spodoptera frugiperda).
# After 7 days mortality in % is determined. 100% means all the caterpillars have been killed and 0% means none of the caterpillars have been killed.
# [2] = test system: adult engorged female ticks (Rhipicephalus microplus); experiment: Rhipicephalus (Boophilus) microplus injection test; settings: 168 h, egg deposition after 7 days, read-out: efficacy (infertile eggs); for pest or weed control at 0.004 mg: 4 μg/animal; for pest or weed control at 0.02 mg: 20 μg/animal
# Outline: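 Compound was dissolved in DMSO at 10 mg per 0.5 mL and diluted with DMSO to the test concentration. Five engorged adult females received a 1 μL abdominal injection and were kept in a climate chamber. After 7 days, fertile egg deposition was scored, with unclear eggs held until hatching at about 42 days; 100% efficacy means all eggs were infertile.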
# [3] = test system: adult unfed cat fleas (Ctenocephalides felis); experiment: Ctenocephalides felis oral test; settings: 48 h, 100 ppm in cattle blood, after 2 days
# Outline: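 About 20 adult unfed Ctenocephalides felis fed through parafilm on cattle blood dosed with compound (DMSO stock diluted in blood), blood chamber at 37°C, fleas at room temperature. Mortality (%) scored after 2 days; 100% means all fleas killed.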
# [4] = test system: fall armyworm larvae (Spodoptera frugiperda); experiment: Spodoptera frugiperda spray test (maize leaf sections); settings: 168 h
# Outline: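 Maize leaf sections were sprayed with compound formulated in acetone/DMF and diluted in water containing 1000 ppm emulsifier. Once dry, sections were infested with fall armyworm larvae. Mortality (%) was scored after 7 days.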
# [5] = test system: larvae of the southern green stink bug (Nezara viridula); experiment: Nezara viridula spray test; settings: in Hordeum vulgare, 96 h
# Outline: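 Barley plants infested with Nezara viridula larvae were sprayed with compound in acetone/dimethylformamide, diluted in water containing 1000 ppm alkylarylpolyglycol ether emulsifier. Mortality (%) was scored after 4 days; 100% means all stink bugs killed.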
# [6] = test system: larvae of the banded cucumber beetle (Diabrotica balteata); experiment: Diabrotica balteata spray test; settings: 168 h, after 7 days, wheat seeds, read-out: efficacy (seedlings grown up); for pest or weed control at 32 µg/disc, 100 g/ha: 100 g/ha (=32 μg/well)
# Outline: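 Germinated wheat seedlings (5 per well, agar plates) sprayed with compound in acetone/DMF diluted in water with 1000 ppm emulsifier, then infested with 10-20 larvae per unit. Efficacy scored after 7 days as % seedling growth relative to untreated, uninfested control (100% = normal growth, 0% = none).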
# [7] = test system: adult brown dog ticks (Rhipicephalus sanguineus); experiment: Rhipicephalus sanguineus in-vitro contact test with adult brown dog ticks; settings: after 48 hours, read-out: efficacy (ticks dead or moribund); for pest or weed control at 1 µg/cm2, 100 g/ha: 1 μg/cm^2 (=100 g/ha); for pest or weed control at 5 µg/cm2, 500 g/ha: 5 μg/cm^2 (=500 g/ha)
# Outline: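 Compound in acetone coated onto glass tube inner walls at 900 ppm, giving 5 μg/cm^2. Adult ticks (5-10 per tube) held at room temperature for 48 h, then placed on a 45-50° C. heating plate for up to 5 min. Ticks unable to climb away counted dead or moribund; efficacy given as % dead/moribund.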
# [8] = test system: cattle tick larvae (Rhipicephalus microplus), strain Parkhurst, resistant against synthetic pyrethroids; experiment: Rhipicephalus (Boophilus) microplus in-vitro contact test, larval cattle tick; settings: 5 μg/cm^2 (=500 g/ha), after 48 hours, read-out: efficacy (larvae dead or moribund)
# Outline: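 Acetone solutions of compound were coated on glass tube walls (900 ppm giving 5 μg/cm^2) and dried. 20–50 pyrethroid-resistant Parkhurst larvae were held per tube at 27° C and 85% relative humidity; after 48 h negative geotaxis scored efficacy as percent larvae dead or moribund.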
# [9] = test system: brown planthopper (Nilaparvata lugens); experiment: Nilaparvata lugens spray test; settings: in Oryza sativa, 96 h
# Outline: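 Rice plants (Oryza sativa) sprayed with compound in acetone/DMF diluted in water containing 1000 ppm alkylarylpolyglycol ether emulsifier, then infested with planthoppers. Mortality % scored after 4 days (100% = all killed, 0% = none killed).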
# [10] = test system: adult cat fleas (Ctenocephalides felis); experiment: Ctenocephalides felis in-vitro contact test, adult cat flea; settings: 5 μg/cm^2 (=500 g/ha), after 48 hours, read-out: efficacy (fleas dead or moribund)
# Protocol: 9 mg compound is solved in 1 mL acetone and diluted with acetone to the desired concentration. 250 μL of the test solution is filled in 25 mL glass test tubes and homogeneously distributed on the inner walls by rotation and tilting on a shaking device (2 h at 30 rpm). With a compound concentration of 900 ppm, an inner surface of 44.7 cm^2 and a homogeneous distribution, a dose of 5 μg/cm^2 is achieved.
# After the solvent has evaporated, each test tube is filled with 5-10 adult cat fleas (Ctenocephalides felis), closed with a perforated lid and incubated in a lying position at room temperature and relative humidity. After 48 hours efficacy is determined. The fleas are patted on the ground of the tubes and are incubated on a heating plate at 45-50° C. for at most 5 minutes. Immotile or uncoordinated moving fleas, which are not able to escape the heat by climbing upwards, are marked as dead or moribund.
# An efficacy of 100% means all fleas are dead or moribund; 0% means no fleas are dead or moribund.
# [11] = test system: green peach aphid (Myzus persicae); experiment: Myzus persicae spray test; settings: foliar, 120 h, after 5 days, Chinese cabbage leaf disks
# Protocol: Solvent: 78.0 parts by weight acetone • 1.5 parts by weight dimethylformamide
# Emulsifier: alkylarylpolyglycol ether
# To produce a suitable preparation of active compound, 1 part by weight of active compound is mixed with the stated amount of solvents and is diluted with water, containing an emulsifier concentration of 1000 ppm, to the desired concentration. Further test concentrations are prepared by dilution with emulsifier containing water.
# Chinese cabbage (Brassica pekinensis) leaf disks infected with all instars of the green peach aphid (Myzus persicae), are sprayed with a preparation of the active ingredient of the desired concentration.
# After 5 days mortality in % is determined. 100% means all aphids have been killed and 0% means none of the aphids have been killed.
# [12] = test system: green peach aphid (Myzus persicae); experiment: Myzus persicae oral test; settings: 120 h
# Outline: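 Oral uptake format: water-diluted acetone concentrate of compound is blended into IPL41 medium carrying 33%+15% sugar and offered under a parafilm membrane. Percentage of dead insects is recorded after 5 days.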
SMILES,mortality at 20 ppm [1] [%],pest or weed control at 0.004 mg [2] [%],pest or weed control at 0.02 mg [2] [%],mortality at 100 ppm [3] [%],mortality at 100 g/ha [4] [%],mortality at 500 g/ha [4] [%],mortality at 500 g/ha [5] [%],"pest or weed control at 32 µg/disc, 100 g/ha [6] [%]","pest or weed control at 1 µg/cm2, 100 g/ha [7] [%]","pest or weed control at 5 µg/cm2, 500 g/ha [7] [%]",pest or weed control at 5 µg/cm2 [8] [%],mortality at 500 g/ha [9] [%],pest or weed control at 5 µg/cm2 [10] [%],mortality at 100 g/ha [11] [%],mortality at 4 ppm [12] [%],"pest or weed control at 160 µg/disc, 500 g/ha ([6]; 500 g/ha (=160 μg/well)) [%]",mortality at 500 g/ha ([11]; 500 g/ha) [%],mortality at 100 g/ha [5] [%]
CC(NC(=O)c1cc(Cl)cc(C(F)(F)F)c1)c1nc(CS(C)(=O)=O)nn1-c1ccc(Cl)cn1 (stereo not shown) [I-029],100,100,100,100,100,100,,,,,,,,,,,,
CNc1nc([C@H](C)NC(=O)c2cc(Br)cc(Br)c2)n(-c2ccc(C#N)cn2)n1 [I-143],100,,,,100,,100,100,,,,,,,,,,
"CNc1nc([C@H](C)NC(=O)c2cc(C(F)(F)F)cc(C(F)(F)F)c2)n(-c2ncccn2)n1 [I-127, N-[(1S)-1-[5-(methylamino)-2-pyrimidin-2-yl-1,2,4-triazol-3-yl]ethyl]-3,5-bis(trifluoromethyl)benzamide]",,,,,100,,100,100,100,100,100,90,100,90,,,,
CC(NC(=O)c1cc(Cl)cc(C(F)(F)F)c1)c1nc(S(C)(=O)=O)nn1-c1ccc(Cl)cn1 (stereo not shown) [I-063],100,100,100,,100,100,100,100,,,,,,,100,100,,
"C[C@H](NC(=O)c1cc(C(F)(F)F)cc(C(F)(F)F)c1)c1nc(N)nn1-c1ncccn1 [I-134, N-[(1S)-1-(5-amino-2-pyrimidin-2-yl-1,2,4-triazol-3-yl)ethyl]-3,5-bis(trifluoromethyl) benzamide]",,,,,100,,100,100,100,100,100,100,100,100,,,,
CNc1nc([C@H](C)NC(=O)c2cc(Br)cc(OC(F)(F)F)c2)n(-c2ccc(C#N)cn2)n1 [I-142],100,,,,100,,100,100,,,,,,,,,,
CC(NC(=O)c1cc(Br)cc(OC(F)(F)F)c1)c1nc(N)nn1-c1ncccn1 (stereo not shown) [I-095],,,,,,,90,100,,,100,,90,,100,,90,
CC(NC(=O)c1cc(Cl)cc(C(F)(F)F)c1)c1nc(NC(=O)C2CC2)nn1-c1ccc(Cl)cn1 (stereo not shown) [I-015],100,100,100,100,100,100,,,,,,,,,,,,
CC(NC(=O)c1cc(C(F)(F)F)cc(C(F)(F)F)c1)c1nc(N)nn1-c1ncccn1 (stereo not shown) [I-007],,100,,100,100,,,100,100,100,100,,100,90,100,,,100
"C[C@H](NC(=O)c1cc(Cl)cc(S(C)(=O)=O)c1)c1nc(N)nn1-c1ccc(C#N)cn1 [I-148, N-[(1S)-1-[5-amino-2-(5-cyano-2-pyridyl)-1,2,4-triazol-3-yl]ethyl]-3-chloro-5-methylsulfonyl-benzamide]",,,,,100,,100,100,,,90,100,,90,,,,
C[C@H](NC(=O)c1cc(Cl)cc(C(C)(C)C#N)c1)c1nc(N(C)C)nn1-c1ncc(Cl)cn1 [I-178],,,,,100,,100,100,,,,100,,90,,,,
CC(NC(=O)c1cc(Cl)cc(OC(F)(F)F)c1)c1nc(N)nn1-c1ncccn1 (stereo not shown) [I-090],,100,,100,100,,,100,,,90,,90,90,,,,
